According to US11312719B2, “9-substituted amino triazolo quinazoline derivatives as adenosine receptor antagonists, pharmaceutical compositions and their use” (Merck Sharp & Dohme Corp., priority 2018, dated 2022):

How the values were obtained:
[1] = target: human A2A receptors (Homo sapiens (Human), UniProt P29274); experiment: A2A antagonism in cAMP cell-based assay (LANCE cAMP, HEK293); conditions: HEK293 cells expressing human A2A receptor
Outline: (§1)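 HEK293 cells expressing human A2A or A2B, in HBSS/5 mM HEPES/200 nM rolipram, were preincubated with compound (0.5–10,000 nM, 0.25% DMSO) 30 min at 37° C. Adenosine was then added from 300 nM (A2A) or 600 nM (A2B) solution for 30 min.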

[2] = target: human A2B receptors (Homo sapiens (Human), UniProt P29275); experiment: A2B antagonism in cAMP cell-based assay (LANCE cAMP, HEK293); conditions: HEK293 cells expressing human A2B receptor
Outline: as §1

human A2B receptors, sequence (P29275 whole entry): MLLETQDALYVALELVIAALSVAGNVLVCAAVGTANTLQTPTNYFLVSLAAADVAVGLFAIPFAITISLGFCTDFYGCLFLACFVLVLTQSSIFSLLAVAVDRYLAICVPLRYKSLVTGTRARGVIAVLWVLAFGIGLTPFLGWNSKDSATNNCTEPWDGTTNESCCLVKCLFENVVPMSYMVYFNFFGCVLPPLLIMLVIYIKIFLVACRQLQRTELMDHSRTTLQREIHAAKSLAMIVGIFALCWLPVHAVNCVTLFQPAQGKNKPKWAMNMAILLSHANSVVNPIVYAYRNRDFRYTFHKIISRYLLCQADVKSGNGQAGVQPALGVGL
human A2A receptors, sequence (P29274 whole entry): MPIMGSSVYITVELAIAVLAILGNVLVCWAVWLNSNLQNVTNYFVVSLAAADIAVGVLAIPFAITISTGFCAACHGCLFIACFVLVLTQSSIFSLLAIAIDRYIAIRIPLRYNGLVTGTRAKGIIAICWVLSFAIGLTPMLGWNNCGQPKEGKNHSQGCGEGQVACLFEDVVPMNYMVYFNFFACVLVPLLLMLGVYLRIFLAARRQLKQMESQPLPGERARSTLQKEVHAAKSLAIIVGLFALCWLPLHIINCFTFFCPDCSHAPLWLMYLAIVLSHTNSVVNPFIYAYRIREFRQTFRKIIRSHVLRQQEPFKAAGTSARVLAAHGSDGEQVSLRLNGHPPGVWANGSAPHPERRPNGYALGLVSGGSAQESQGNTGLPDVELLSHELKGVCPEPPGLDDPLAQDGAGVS

| Structure (SMILES) | IC50 [1] | IC50 [2] |
| --- | --- | --- |
| COc1cc2nc(N)n3nc([C@H]4CC[C@@H](C)N(c5cnn([C@@H](C)[C@H](C)O)c5)C4)nc3c2cc1F (single isomer, unassigned) [Example 229, (2S,3S or 2R,3R)-3-(4-((2R,5S or 2S,5R)-5-(5-amino-9-fluoro-8-methoxy-[1,2,4]triazolo[1,5-c]quinazolin-2-yl)-2-methylpiperidin-1-yl)-1H-pyrazol-1-yl)butan-2-ol] | 1 nM | 6.6 nM |
| COc1cc2nc(N)n3nc([C@H]4CC[C@@H](C)N(c5cnn([C@H](C)[C@@H](C)O)c5)C4)nc3c2cc1F (single isomer, unassigned) [Example 230, (2R,3R or 2S,3S)-3-(4-((2R,5S or 2S,5R)-5-(5-amino-9-fluoro-8-methoxy-[1,2,4]triazolo[1,5-c]quinazolin-2-yl)-2-methylpiperidin-1-yl)-1H-pyrazol-1-yl)butan-2-ol] | 32.9 nM | 724 nM |
| COc1cc2nc(N)n3nc([C@@H]4CC[C@H](C)N(c5cnn([C@H](C)[C@@H](C)O)c5)C4)nc3c2cc1F (single isomer, unassigned) [Example 231, (2R,3R or 2S,3S)-3-(4-((2S,5R or 2R,5S)-5-(5-amino-9-fluoro-8-methoxy-[1,2,4]triazolo[1,5-c]quinazolin-2-yl)-2-methylpiperidin-1-yl)-1H-pyrazol-1-yl)butan-2-ol] | 122 nM | 3840 nM |
| CC(O)C(C)n1cc(N2CC(c3nc4c5cc(F)cc(F)c5nc(N)n4n3)CCC2C)cn1 (single isomer, unassigned) [Example 232, (2S,3S or 2R,3R)-3-(4-((2S,5R or 2R,5S)-5-(5-amino-7,9-difluoro-[1,2,4]triazolo[1,5-c]quinazolin-2-yl)-2-methylpiperidin-1-yl)-1H-pyrazol-1-yl)butan-2-ol] | 1.3 nM | 12.7 nM |
| CC(O)C(C)n1cc(N2CC(c3nc4c5cc(F)cc(F)c5nc(N)n4n3)CCC2C)cn1 (single isomer, unassigned) [Example 233, (2R,3R or 2S,3S)-3-(4-((2S,5R or 2R,5S)-5-(5-amino-7,9-difluoro-[1,2,4]triazolo[1,5-c]quinazolin-2-yl)-2-methylpiperidin-1-yl)-1H-pyrazol-1-yl)butan-2-ol] | 0.7 nM | 5.6 nM |
| CC(O)C(C)n1cc(N2CC(c3nc4c5cc(F)cc(F)c5nc(N)n4n3)CCC2C)cn1 (single isomer, unassigned) [Example 234, (2R,3R or 2S,3S)-3-(4-((2R,5S or 2S,5R)-5-(5-amino-7,9-difluoro-[1,2,4]triazolo[1,5-c]quinazolin-2-yl)-2-methylpiperidin-1-yl)-1H-pyrazol-1-yl)butan-2-ol] | 46.8 nM | 1200 nM |
| CC(O)C(C)n1cc(N2CC(c3nc4c5cc(F)cc(F)c5nc(N)n4n3)CCC2C)cn1 (single isomer, unassigned) [Example 235, (2S,3S or 2R,3R)-3-(4-((2R,5S or 2S,5R)-5-(5-amino-7,9-difluoro-[1,2,4]triazolo[1,5-c]quinazolin-2-yl)-2-methylpiperidin-1-yl)-1H-pyrazol-1-yl)butan-2-ol] | 439 nM | 4450 nM |
| COc1cc2nc(N)n3nc(C4CCC(C)N(c5cnn(C(C)C(C)O)c5)C4)nc3c2cc1F (single isomer, unassigned) [Example 236, (2S,3R or 2R,3S)-3-(4-((2S,5R or 2R,5S)-5-(5-amino-9-fluoro-8-methoxy-[1,2,4]triazolo[1,5-c]quinazolin-2-yl)-2-methylpiperidin-1-yl)-1H-pyrazol-1-yl)butan-2-ol] | 1 nM | 5.1 nM |
| COc1cc2nc(N)n3nc(C4CCC(C)N(c5cnn(C(C)C(C)O)c5)C4)nc3c2cc1F (single isomer, unassigned) [Example 237, (2R,3S or 2S,3R)-3-(4-((2S,5R or 2R,5S)-5-(5-amino-9-fluoro-8-methoxy-[1,2,4]triazolo[1,5-c]quinazolin-2-yl)-2-methylpiperidin-1-yl)-1H-pyrazol-1-yl)butan-2-ol] | 0.8 nM | 8.7 nM |
